# Results as given in the METLIN SMRT retention time set (Domingo-Almenara et al. 2019).
# Test: gradient 5% acetonitrile 3 min, to 50% in 2 min, to 85% in 15 min, held 3 min, 100 µL/min
# Details: column: Zorbax Extend-C18 2.1 x 50 mm; eluents: water / acetonitrile, 0.1% formic acid
# Procedure, shortened: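 Using water and acetonitrile that each contained 0.1% formic acid, mixtures of ~100 pure standards were separated at 100 μL/min on a Zorbax Extend-C18 column (2.1 × 50 mm, 1.8 μm). The HPLC fed a quadrupole time-of-flight mass spectrometer working in positive and negative ionization mode, with dead and dwell volumes of 40 μL and 900 μL. Data were acquired over 3 months. Retention time was read from computationally picked adduct peaks after manual inspection of each.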
row,RP-LC retention time,Compound
1,744 s,O=S(=O)(Nc1ccc(Cn2cncn2)cc1)c1ccc(Cl)cc1
2,772 s,COc1ccc(OC)c(NC(=O)Cc2csc3nc(-c4ccc(C)c(C)c4)cn23)c1
3,687 s,CCc1ccc(S(=O)(=O)c2ccccc2)cc1S(=O)(=O)NCCCN(C)C
4,708 s,O=S(=O)(NCC1CCN(Cc2ccc(Cl)cc2)CC1)c1ccc2c(c1)-c1oncc1CO2
5,555 s,O=c1ccc(-n2ccnc2)nn1CCNS(=O)(=O)Cc1cc(F)ccc1F
6,750 s,O=C(Nc1nnc(SCc2nnc(-c3ccc4c(c3)OCO4)o2)s1)C1CC1
7,581 s,CN(C)[C@@H]1CN(C(=O)c2ccc(Br)cc2F)C[C@H]1CO
8,739 s,Cc1ccccc1CNC(=O)c1ccc2c(c1)n(C)c(=O)c1ccnn12
9,1260 s,CC1CCN(S(=O)(=O)c2ccc3nc(N4CCN(c5ccccc5F)CC4)ccc3c2)CC1
10,872 s,COc1cccc(-c2cc(C(=O)N3CCCC3c3c(C)noc3C)on2)c1 (configuration not stated)
11,941 s,O=C(Nc1cnn(-c2ncc(N3CCCC3)cn2)c1)c1ccc(C(F)(F)F)cc1
12,652 s,O=C(NC1CCS(=O)(=O)C1)C1Cn2cccc2C(=O)N1Cc1ccccc1 (configuration not stated)
13,874 s,Cc1ccc(NC(=O)CCCn2cccc2)cc1F
14,629 s,CCOC(=O)C1CCC(CNC(=O)N2CCCn3nc(-c4cccnc4)cc3C2)CC1 (configuration not stated)
15,643 s,Cc1ccccc1Cc1c(C)nc2nc(SCC(=O)NCCCN3CCOCC3)nn2c1C
16,690 s,CCCn1cnc2cc(CNC(=O)c3cccc(C(F)(F)F)c3)ccc21
17,674 s,CC(C)c1nc2c(c(=O)n1CC(=O)Nc1ccccc1)CCN(Cc1ccccc1)C2
18,1130 s,Clc1ccc(OCCSc2nnc(-c3ccc4c(c3)OCO4)o2)cc1
19,599 s,O=C(NCc1cc(F)cc(F)c1)c1cn2c(n1)CCCC2
20,602 s,O=C(c1ccc(CS(=O)c2cccc(Cl)c2)o1)N1CCN(c2ccccn2)CC1 (configuration not stated)
21,843 s,CCSc1ccccc1C(=O)NCC1(c2ccccc2OC)CCOCC1
22,883 s,Cc1ccc(F)cc1S(=O)(=O)N1CCC(N2CCN(Cc3ccccc3)C(=O)C2=O)CC1

row,RP-LC retention time,Compound
1,585 s,O=C1N=C(N2CCN(Cc3ccc(F)cc3)CC2)S/C1=C\c1cccc(O)c1
2,600 s,COc1ccc(-c2cc(C(=O)N(C)C3CCN(C)CC3)nn2C2CCS(=O)(=O)C2)cc1 (configuration not stated)
3,920 s,CC(Cc1ccco1)NC(=O)C1CCN(S(=O)(=O)c2ccc3c(c2)sc(=O)n3C(C)C)CC1 (configuration not stated)
4,1280 s,CC(C)(C)c1csc(-c2csc(S(=O)(=O)NCc3ccc(F)c(Cl)c3)c2)n1
5,1270 s,COc1ccccc1N1CCN(c2nc3c(c(Nc4ccccc4)n2)C(=O)CCC3)CC1
6,612 s,Cn1c(NC(=O)c2ccc(S(=O)(=O)N3CCOCC3)cc2)cc(=O)n(C)c1=O
7,877 s,Cc1ccc(Cl)cc1N1CCN(C(=O)c2ccc(Cn3cncn3)cc2)CC1
8,1030 s,O=C(Cn1cccc1-c1nc(-c2ccc3c(c2)OCO3)no1)Nc1ccc(F)c(Cl)c1
9,704 s,CCN1CCn2c(nc3cc(C(=O)NCc4ccc(Br)cc4)ccc32)C1=O
10,1310 s,CC(=O)c1cccc(OC(=O)c2cc3c(C)nn(-c4ccccc4)c3s2)c1
11,725 s,CCCCNC(=O)c1cc2n(n1)CC(C)(C(=O)NCc1ccc(F)cc1)N(C)C2=O (configuration not stated)
12,879 s,Cc1cc(C)cc(NC(=O)N2C[C@@H](F)C[C@H]2C(=O)N2CCc3ccccc3C2)c1
13,749 s,CCCCN(C)C(=O)CSc1ncc(S(=O)(=O)c2cccs2)c(N)n1
14,762 s,Cc1cc(=O)n(CC(=O)NCc2ccccc2Cl)c(N(C)Cc2ccccc2)n1
15,701 s,Cc1cc(=O)n(CC(=O)NCCc2ccc(Cl)cc2)c(N2CCOCC2)n1
16,654 s,O=C(Nc1ccc(Cn2cncn2)cc1)c1ccccn1
17,819 s,CCOc1ccc(-c2noc(Cn3ccn4nc(-c5ccc(F)cc5)cc4c3=O)n2)cc1OC
18,708 s,COC(=O)c1ncn2c1C(=O)N(c1cccc(C)c1C)C(C)(C(=O)NCc1ccccc1)C2 (configuration not stated)
19,1110 s,COC(=O)c1ccc2c(=O)n(-c3cccc(C)c3)c(N3CCSCC3)nc2c1
20,636 s,COC(=O)c1c(C)[nH]c(C(=O)N2CCC(CC(=O)N3CCOCC3)CC2)c1C
21,687 s,Cc1ccc(S(=O)(=O)N2CCCC(C(=O)NCc3c(C)nc4sc(C)nn34)C2)cc1 (configuration not stated)
22,1080 s,CCOC(=O)Cc1c(C)nc2c(-c3ccccc3)c(C)nn2c1C

row,RP-LC retention time,Compound
1,683 s,CCC(=O)Nc1ccc(CCc2nc3ccc(C(=O)NCc4ccc(SC)cc4)cc3[nH]2)cc1
2,543 s,CN(C)S(=O)(=O)N1CC(c2nc(Cc3cccnc3)no2)C1
3,698 s,Cc1ccc(NC(=O)CSc2ccc(N3CCCC(C(=O)NC4CC4)C3)nn2)cc1Cl (configuration not stated)
4,888 s,Cc1ccc(OCC(=O)Nc2ccc(-c3nc(-c4cc(C)ccc4C)co3)cc2)cc1
5,1370 s,Cc1ccc(C(=O)Nc2nc(-c3ccc(C(C)(C)C)cc3)cs2)cc1
6,836 s,Cc1ccc(-c2noc(C3CC3)n2)cc1S(=O)(=O)N1CCC(C(=O)NC2CC2)CC1
7,1320 s,CCC(C)n1c(=O)c2ccccc2n(Cc2nc(-c3ccc(Br)cc3)no2)c1=O (configuration not stated)
8,784 s,Cc1ccc(C)c(NC(=O)Cn2ccc3ccn(C)c3c2=O)c1
9,745 s,O=S(=O)(Cc1ccccc1)N1CCN(Cc2cccc(F)c2)C2(CCOCC2)C1
10,769 s,O=C(c1ccc[nH]1)N1CCC2(CC1)NC(=O)N(Cc1cccc(Cl)c1)C2=O
11,802 s,Cc1ccc2c(c1Br)C(O)(CC(=O)c1ccc(F)cc1)C(=O)N2 (configuration not stated)
12,796 s,CC(C)n1c(-c2cccc(C(=O)NC3CCCC3)c2)nc2cccnc21
13,781 s,COCCOCc1nc(C2CCCN2S(=O)(=O)c2ccccc2)no1 (configuration not stated)
14,1170 s,Cc1ccccc1-c1noc(CSc2nc3cc4c(cc3c(=O)n2CC2CCCO2)OCO4)n1 (configuration not stated)
15,796 s,COc1ccc(NC(=O)N2CCC(N3CCN(Cc4ccccc4)C3=O)CC2)c(OC)c1
16,614 s,Fc1cccc(-c2noc(-c3ccc(NCCCN4CCC(N5CCCCC5)CC4)nc3)n2)c1
17,603 s,CCCNc1cc(N2CCC(CCC(=O)N3CCN(c4ccccc4)CC3)CC2)ncn1
18,646 s,Cc1ccc(-c2nc(-c3ccc4c(c3)ncn4CCN3CCCCC3)no2)s1
19,650 s,CCc1ccc(NC(=O)c2ccc(=O)n(CCN3CCCC3)c2)cc1
20,1200 s,CCOC(=O)c1sc2ncnc(N3CCN(c4ccccc4OC)CC3)c2c1C
21,1000 s,O=C(Nc1cnc(-c2ccc(F)cc2)nc1)c1ccc(F)cc1
22,656 s,CN(C)CCn1c2c(c(SCC(=O)Nc3ccc(Cl)cc3)nc1=O)CCC2

row,RP-LC retention time,Compound
1,1000 s,COc1cccc(NC(=O)C2CCN(S(=O)(=O)c3cc(-c4noc(C5CC5)n4)cs3)CC2)c1
2,636 s,COCCCNC(=O)Cn1ccc2c(SCc3ccccc3)nccc21
3,1070 s,CCCNC(=O)c1cnn(-c2ccc(-c3nc(C(C)(C)C)no3)cn2)c1C
4,743 s,COc1ccc(CNC(=O)c2c(C)sc3ccn(C)c(=O)c23)c(OC)c1
5,728 s,Cc1cc(F)ccc1NC(=O)c1cn2c(n1)CSCC2
6,709 s,O=C(CN1C(=O)NC2(CCCCC2)C1=O)Nc1ccc2c(c1)OCO2
7,722 s,CC(C)c1ccc(-n2c3c(cc(C(=O)N4CCOCC4)c2=O)C(=O)CCC3)cc1
8,645 s,COc1ccc(Cl)cc1NC(=O)N1CCC(C(=O)Nc2cc(C)on2)CC1
9,986 s,Cc1nc2c(ccc3nc(NC(=O)c4ccc(Cl)s4)sc32)s1
10,718 s,CCC(C)C(NC(=O)c1ccc2c(c1)OCO2)C(=O)Nc1nc2ccccc2[nH]1 (configuration not stated)
11,813 s,O=C(NC1CC1)[C@@H]1C[C@H](Oc2ccccc2)CN1C(=O)COc1ccc(F)cc1
12,671 s,O=c1c2cc(-c3ccccc3)nn2ccn1Cc1noc(CN2CCCCCC2)n1
13,876 s,CCOc1cc(CNC(=O)C2CCCN(C(=O)c3[nH]c(C)cc3C)C2)cc(OCC)c1OCC (configuration not stated)
14,861 s,Cc1oc(C2CCN(S(=O)(=O)Cc3ccccc3)CC2)nc1C(=O)N1CCCC1
15,573 s,CCN(CC)CCNC(=O)C1CCN(c2nc3cccnc3s2)CC1
16,805 s,Cn1nc(C(=O)N2CCCN(c3cc(-c4ccc(Cl)cc4)[nH]n3)CC2)c2ccccc21
17,668 s,CCOc1ccc(NCC(O)Cn2c3ccccc3n3c(=O)cc(C)c(C#N)c23)cc1 (configuration not stated)
18,1070 s,O=C(Nc1ccccc1Br)N1CCCC1c1nc(-c2ccc(F)cc2F)no1 (configuration not stated)
19,889 s,Cn1cc(C2=CCN(S(=O)(=O)c3cccc4cccnc34)CC2)c2cccnc21

row,Compound,RP-LC retention time
1,CCCN(CCC)[C@@H]1CCc2c(OC)cccc2[C@@H]1C,802 s
2,O=C(CCc1nnc2c3cc(-c4ccccc4)nn3ccn12)N1CCC2(CC1)OCCO2,686 s
